Patent US20040072206A1, “Method for identifying modulators of transcription” (priority 2000, published 2004)

Molecular target: T1, B. subtilis RNAP (Bacillus subtilis, UniProt P37870+P37871)
T1 construct: endogenous in cells; host or cells: Bacillus subtilis strain PL37 (built from strain 168)
Test: Dual reporter assay in strain PL37: test reporter Pxyl-lacZ and ratio of control to test reporter (RES:MUG)
Type: cell-based
Conditions: strain PL37, DMSO control […]
Description: 20 known antibiotics were tested at a range of concentrations to determine their effect on test and control reporters within the assay. […] Cultures of PL37 grown in PAB, were diluted to 0.05 A600 and then grown for 2 hours at 37° C. in PAB supplemented with 0.02 mM IPTG. Cells were pelleted and frozen. They were later resuspended and diluted in PAB supplemented with 0.02 mM IPTG and grown at 37° C. to early exponential phase. Cultures were then diluted to 0.05 A600 in PAB and added in 20 μl volumes to wells of microtitre plates containing 20 μl volumes of the antibiotics. Plates were incubated at 37° C. for two hours, and assay mix was added to detect reporter enzyme activity (see below).
Following the addition of 160 μl of assay mix (1.3×Z buffer containing 94 μg/ml lysozyme, 8.4 μg/ml 4-methylumbelliferyl-β-D-galactoside, 0.53 μg/ml resorufin-β-D-glucuronide and 0.05% Triton) to each well, the microtitre plate was incubated in the dark for 30 mini or 1 hour at room temperature. Fluorescence was read on a BMG FLUOstar Galaxy at excitation/emission 355/460 nm and 544/590 nm, respectively, with gains set at 5 and 25, respectively.

[1] = Dilution Number 11 (lowest concentration tested: 0.125, 0.016 or 0.0005 μg/ml depending on antibiotic)
[2] = Dilution Number 1 (highest concentration tested: 128, 16 or 0.5 μg/ml depending on antibiotic)

T1 sequence (P37871 whole entry): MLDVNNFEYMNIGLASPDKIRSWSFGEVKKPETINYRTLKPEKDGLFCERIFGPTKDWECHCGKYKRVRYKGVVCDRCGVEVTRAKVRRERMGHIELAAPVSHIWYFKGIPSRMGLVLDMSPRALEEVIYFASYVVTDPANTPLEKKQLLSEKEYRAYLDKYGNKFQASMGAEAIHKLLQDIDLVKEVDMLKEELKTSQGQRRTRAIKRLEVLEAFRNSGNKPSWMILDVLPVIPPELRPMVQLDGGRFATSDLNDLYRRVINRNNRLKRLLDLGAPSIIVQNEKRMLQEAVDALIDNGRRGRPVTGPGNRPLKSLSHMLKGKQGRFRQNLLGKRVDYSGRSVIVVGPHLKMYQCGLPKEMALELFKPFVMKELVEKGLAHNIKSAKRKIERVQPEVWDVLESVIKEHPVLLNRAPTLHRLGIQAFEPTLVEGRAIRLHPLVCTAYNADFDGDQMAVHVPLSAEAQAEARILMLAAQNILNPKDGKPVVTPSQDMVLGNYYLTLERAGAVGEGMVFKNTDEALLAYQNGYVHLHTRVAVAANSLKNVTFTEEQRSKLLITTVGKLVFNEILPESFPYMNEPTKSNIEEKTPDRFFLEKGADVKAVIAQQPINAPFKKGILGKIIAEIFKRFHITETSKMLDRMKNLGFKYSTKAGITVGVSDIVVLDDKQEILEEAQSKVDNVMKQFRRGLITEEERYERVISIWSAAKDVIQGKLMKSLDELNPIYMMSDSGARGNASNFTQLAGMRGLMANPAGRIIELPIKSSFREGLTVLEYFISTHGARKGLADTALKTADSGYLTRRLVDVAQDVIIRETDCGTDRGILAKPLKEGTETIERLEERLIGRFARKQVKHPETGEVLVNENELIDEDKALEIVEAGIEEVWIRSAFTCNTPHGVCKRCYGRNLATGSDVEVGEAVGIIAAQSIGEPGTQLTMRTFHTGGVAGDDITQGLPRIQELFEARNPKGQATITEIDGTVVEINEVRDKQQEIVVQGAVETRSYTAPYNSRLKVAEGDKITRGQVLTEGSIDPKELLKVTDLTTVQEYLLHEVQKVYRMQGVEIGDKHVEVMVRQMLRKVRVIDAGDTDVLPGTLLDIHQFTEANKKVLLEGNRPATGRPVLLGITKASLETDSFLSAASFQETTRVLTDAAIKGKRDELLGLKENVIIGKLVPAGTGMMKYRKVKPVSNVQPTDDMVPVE
T1 sequence (P20429 whole entry, further chain): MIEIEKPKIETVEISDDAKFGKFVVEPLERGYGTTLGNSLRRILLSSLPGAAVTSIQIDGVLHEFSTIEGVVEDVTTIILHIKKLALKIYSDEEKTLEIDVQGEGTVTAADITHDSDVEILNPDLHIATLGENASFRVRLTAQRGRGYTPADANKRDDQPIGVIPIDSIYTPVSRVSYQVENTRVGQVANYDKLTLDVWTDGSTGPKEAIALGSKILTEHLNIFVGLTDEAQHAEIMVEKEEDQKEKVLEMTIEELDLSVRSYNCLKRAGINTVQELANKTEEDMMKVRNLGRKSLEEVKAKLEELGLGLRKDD
T1 sequence (O35011 whole entry, further chain): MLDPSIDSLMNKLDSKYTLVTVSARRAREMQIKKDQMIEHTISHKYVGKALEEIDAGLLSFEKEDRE
T1 sequence (P37870 whole entry): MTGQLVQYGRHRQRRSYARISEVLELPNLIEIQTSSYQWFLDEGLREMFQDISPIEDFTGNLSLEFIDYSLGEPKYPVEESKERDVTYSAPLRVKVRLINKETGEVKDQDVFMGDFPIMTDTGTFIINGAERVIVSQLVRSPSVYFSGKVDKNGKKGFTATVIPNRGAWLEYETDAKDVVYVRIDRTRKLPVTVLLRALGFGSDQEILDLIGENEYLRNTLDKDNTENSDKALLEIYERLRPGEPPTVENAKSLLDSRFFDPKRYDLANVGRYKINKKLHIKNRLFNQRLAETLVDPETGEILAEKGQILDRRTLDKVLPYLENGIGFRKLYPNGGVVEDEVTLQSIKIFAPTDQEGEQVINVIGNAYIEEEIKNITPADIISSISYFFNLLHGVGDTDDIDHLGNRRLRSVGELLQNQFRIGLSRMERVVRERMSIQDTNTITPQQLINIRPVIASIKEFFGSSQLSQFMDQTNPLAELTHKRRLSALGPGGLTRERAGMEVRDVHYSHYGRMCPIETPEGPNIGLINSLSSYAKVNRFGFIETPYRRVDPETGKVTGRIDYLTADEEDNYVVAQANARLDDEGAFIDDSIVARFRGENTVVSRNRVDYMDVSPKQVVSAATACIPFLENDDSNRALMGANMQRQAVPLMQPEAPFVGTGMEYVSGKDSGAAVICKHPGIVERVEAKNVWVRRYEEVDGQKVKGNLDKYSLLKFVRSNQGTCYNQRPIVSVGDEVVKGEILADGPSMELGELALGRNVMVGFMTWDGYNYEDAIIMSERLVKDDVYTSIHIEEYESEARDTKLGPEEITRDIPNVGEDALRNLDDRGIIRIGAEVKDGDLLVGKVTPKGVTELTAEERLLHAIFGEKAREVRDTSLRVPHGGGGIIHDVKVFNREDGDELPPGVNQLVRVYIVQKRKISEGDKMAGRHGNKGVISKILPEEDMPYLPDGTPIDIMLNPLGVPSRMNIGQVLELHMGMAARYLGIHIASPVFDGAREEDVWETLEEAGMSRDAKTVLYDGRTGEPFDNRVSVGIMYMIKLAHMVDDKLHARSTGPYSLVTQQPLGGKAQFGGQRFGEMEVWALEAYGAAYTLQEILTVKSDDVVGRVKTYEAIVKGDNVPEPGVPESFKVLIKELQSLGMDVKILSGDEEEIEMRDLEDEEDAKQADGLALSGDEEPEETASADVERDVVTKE

| Compound | Ratio of the control reporter (RES): test reporter (MUG) (Dilution Number 9) | Ratio of the control reporter (RES): test reporter (MUG) (Dilution Number 10) | Ratio of the control reporter (RES): test reporter (MUG) [1] | Ratio of the control reporter (RES): test reporter (MUG) [2] | Ratio of the control reporter (RES): test reporter (MUG) (Dilution Number 2) | Ratio of the control reporter (RES): test reporter (MUG) (Dilution Number 3) | Ratio of the control reporter (RES): test reporter (MUG) (Dilution Number 4) | Ratio of the control reporter (RES): test reporter (MUG) (Dilution Number 5) | Ratio of the control reporter (RES): test reporter (MUG) (Dilution Number 6) | Ratio of the control reporter (RES): test reporter (MUG) (Dilution Number 7) | Ratio of the control reporter (RES): test reporter (MUG) (Dilution Number 8) |
| --- | --- | --- | --- | --- | --- | --- | --- | --- | --- | --- | --- |
| CC1(C)S[C@@H]2[C@H](NC(=O)[C@H](N)c3ccccc3)C(=O)N2[C@H]1C(=O)O [Ampicillin] | 1.16 | 1.02 | 1.06 |  |  |  |  |  |  |  |  |
| CC(O)C(=O)O.COc1cc(Cc2cnc(N)nc2N)cc(OC)c1OC [Trimethoprim Lactate] | 0.63 | 0.81 | 1.00 | 0.62 | 0.55 | 0.54 | 0.52 | 0.54 | 0.58 | 0.68 | 0.65 |
| CC[C@@]1([C@@H]2O[C@@H]([C@H]3O[C@@](O)(CO)[C@H](C)C[C@@H]3C)C[C@@H]2C)CC[C@H]([C@]2(C)CC[C@]3(C[C@H](O)[C@@H](C)[C@@H]([C@@H](C)[C@@H](OC)[C@H](C)C(=O)O)O3)O2)O1 [Monensin] | 1.54 | 1.37 | 1.33 | 1.74 | 1.42 | 1.45 | 1.79 | 2.06 | 2.00 | 1.88 | 1.74 |
| CCn1cc(C(=O)O)c(=O)c2ccc(C)nc21 [Nalidixic Acid] | 1.26 | 1.26 | 1.22 | 1.50 | 1.76 | 1.74 | 0.87 | 0.68 | 0.91 | 1.18 | 1.25 |
| CCn1cc(C(=O)O)c(=O)c2cc3c(cc21)OCO3 [Oxolinic Acid] | 1.05 | 1.14 | 1.17 | 0.89 | 1.33 | 1.63 | 1.77 | 2.02 | 1.86 | 0.96 | 1.06 |
| CC1(C)S[C@@H]2[C@H](NC(=O)C(C(=O)O)c3ccccc3)C(=O)N2[C@H]1C(=O)O (stereo partly shown) [Carbenicillin] | 1.00 | 1.05 | 1.07 | 1.37 | 1.49 | 1.59 | 1.63 | 1.66 | 1.64 | 1.60 | 1.03 |
